In patent US5021549A, “Physiologically active substances, probestin and prostatin and production thereof” (priority 1987, dated 1991):

Legend:
Aminopeptidase-A = Aminopeptidase-A (Homo sapiens, UniProt Q07075); test: Inhibition of aminopeptidase-A
aminopeptidase M = target: T1, aminopeptidase M (Sus scrofa, UniProt P15145); test: Inhibition of aminopeptidase M (L-leucine-β-naphthylamide substrate); assay type: biochemical; settings: read-out: Value of IC50 against Aminopeptidase M (converted)
T1 construct: purchased Boehringer Mannheim Company
T1 sequence (P15145 1-963): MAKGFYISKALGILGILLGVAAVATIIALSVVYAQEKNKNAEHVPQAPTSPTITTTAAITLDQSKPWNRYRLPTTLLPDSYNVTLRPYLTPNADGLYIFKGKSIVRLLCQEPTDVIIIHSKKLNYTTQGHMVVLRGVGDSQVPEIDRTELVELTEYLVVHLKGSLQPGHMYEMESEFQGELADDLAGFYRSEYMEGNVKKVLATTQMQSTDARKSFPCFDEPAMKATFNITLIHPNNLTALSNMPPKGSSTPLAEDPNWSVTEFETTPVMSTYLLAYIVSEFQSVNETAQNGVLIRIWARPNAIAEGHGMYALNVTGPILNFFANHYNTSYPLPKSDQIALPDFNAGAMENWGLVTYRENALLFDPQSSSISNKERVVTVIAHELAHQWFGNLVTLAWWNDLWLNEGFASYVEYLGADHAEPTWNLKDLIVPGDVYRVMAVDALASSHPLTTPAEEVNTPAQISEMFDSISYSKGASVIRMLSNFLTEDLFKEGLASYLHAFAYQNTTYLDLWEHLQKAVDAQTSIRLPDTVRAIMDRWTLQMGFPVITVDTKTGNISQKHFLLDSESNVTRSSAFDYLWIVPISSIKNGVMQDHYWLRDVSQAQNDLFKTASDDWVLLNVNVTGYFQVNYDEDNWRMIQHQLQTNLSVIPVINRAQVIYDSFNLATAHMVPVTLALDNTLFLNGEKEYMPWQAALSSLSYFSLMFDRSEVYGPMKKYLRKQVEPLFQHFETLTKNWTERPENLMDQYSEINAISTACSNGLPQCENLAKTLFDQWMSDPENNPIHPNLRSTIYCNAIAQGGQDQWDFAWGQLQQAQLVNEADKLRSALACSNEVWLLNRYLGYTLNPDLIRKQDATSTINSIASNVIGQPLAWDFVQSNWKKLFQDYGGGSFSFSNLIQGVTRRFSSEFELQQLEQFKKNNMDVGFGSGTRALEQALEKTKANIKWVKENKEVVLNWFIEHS
Method: The mixture solution obtained is heated at 37° C. for 3 minutes. To the heated solution is added 0.05 ml of an aqueous solution of aminopeptidase M (a product of Boehringer Mannheim Company; 4 units/mg). The resulting mixture is incubated for 30 minutes at 37° C. for the enzymatic reaction and the resultant reaction mixture is admixed with 1 ml of 1.0 M acetate buffered solution (pH 4.2) containing 10% of a surfectant "Tween" 20 and 0.1% of Fast Garnet GBC (0-aminoazotoluene, diazonium salt) to stop the enzymatic reaction. After allowing the resulting mixture to stand at ambient temperature for 15 minutes, the absorbance of light at 525 nm of the resultant reaction solution is measured, with designating the measured value as value (a). […] The rate (%) of inhibition to the aminopeptidase M is calculated from an equation [(b-a)/b]×100.

Leucine-aminopeptidase = Leucine-aminopeptidase (Homo sapiens, UniProt P28838); test: Inhibition of leucine-aminopeptidase
Sequence of Leucine-aminopeptidase (P28838 whole entry): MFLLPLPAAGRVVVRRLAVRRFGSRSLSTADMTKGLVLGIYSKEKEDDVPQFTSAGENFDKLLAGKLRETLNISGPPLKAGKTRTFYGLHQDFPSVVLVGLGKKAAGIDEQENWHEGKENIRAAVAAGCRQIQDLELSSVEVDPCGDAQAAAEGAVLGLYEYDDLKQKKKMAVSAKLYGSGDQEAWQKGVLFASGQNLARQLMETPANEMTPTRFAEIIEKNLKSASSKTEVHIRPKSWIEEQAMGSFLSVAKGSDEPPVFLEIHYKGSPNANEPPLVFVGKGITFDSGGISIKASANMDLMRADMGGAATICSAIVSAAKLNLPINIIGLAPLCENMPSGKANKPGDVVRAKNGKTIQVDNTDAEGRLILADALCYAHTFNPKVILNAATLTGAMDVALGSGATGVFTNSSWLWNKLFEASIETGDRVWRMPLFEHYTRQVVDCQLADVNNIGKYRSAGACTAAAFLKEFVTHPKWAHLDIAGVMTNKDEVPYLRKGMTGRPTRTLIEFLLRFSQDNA

mice = test: Acute toxicity by intravenous injection in mice; assay type: in vivo
Aminopeptidase-B = Aminopeptidase-B (Homo sapiens, UniProt Q9H4A4); test: Inhibition of aminopeptidase-B
Sequence of Aminopeptidase-B (Q9H4A4 whole entry): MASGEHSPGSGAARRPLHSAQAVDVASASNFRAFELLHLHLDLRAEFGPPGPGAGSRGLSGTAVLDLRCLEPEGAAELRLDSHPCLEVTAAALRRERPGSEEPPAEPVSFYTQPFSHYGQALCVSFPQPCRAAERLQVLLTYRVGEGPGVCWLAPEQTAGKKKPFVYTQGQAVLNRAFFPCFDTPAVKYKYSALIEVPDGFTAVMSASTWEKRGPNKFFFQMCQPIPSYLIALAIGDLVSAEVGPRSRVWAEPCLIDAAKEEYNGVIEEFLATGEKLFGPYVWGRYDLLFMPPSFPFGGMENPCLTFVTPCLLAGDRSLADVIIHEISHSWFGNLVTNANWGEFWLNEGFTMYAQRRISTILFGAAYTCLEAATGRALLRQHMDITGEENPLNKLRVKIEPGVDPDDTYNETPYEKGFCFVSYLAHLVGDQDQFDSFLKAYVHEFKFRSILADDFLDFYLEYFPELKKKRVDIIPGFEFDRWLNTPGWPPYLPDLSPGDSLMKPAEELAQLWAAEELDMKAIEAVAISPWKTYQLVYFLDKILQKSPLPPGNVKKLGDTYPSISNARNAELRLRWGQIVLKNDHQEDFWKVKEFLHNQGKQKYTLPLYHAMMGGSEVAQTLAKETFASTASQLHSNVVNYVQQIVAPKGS

Solubility in solvents = assay type: physicochemical; settings: water and organic solvents
[1] = system: antibody-forming cells in spleen; test: Humoral antibody formation: plaque-forming cells in spleen of SRBC-immunized mice (Jerne's hemolytic plaque technique); assay type: in vivo, CDF-mice; settings: for Number of PFC: counted 4 days after SRBC immunization; for T/C (%): PFC number versus control
Method: CDF-mice were immunized by intravenous injection of 10^8 sheep red blood cells (SRBC). 1000 μg/mouse, 250 μg/mouse or 62.5 μg/mouse of probestin was administered by intraperitoneal injection into the mice at the time of the immunization with SRBC (0 hour) and then totally three times, namely 24, 48 and 72 hours after the immunization. Four days after the immunization with SRBC, the number of the plaque-forming cell (PFC) (namely, the antibody-forming cells) in spleen was enumerated by the known Jerne's hemolytic plaque technique [Jerne, N.K; A. A. Nordin & C. Henry; "The agar plaque technique for recognizing antibody-producing cells in cell-bound antibodies" pp. 109-122 published by Wister Institute press, Philadelphia (1963)].

Sequence of Aminopeptidase-A (Q07075 whole entry): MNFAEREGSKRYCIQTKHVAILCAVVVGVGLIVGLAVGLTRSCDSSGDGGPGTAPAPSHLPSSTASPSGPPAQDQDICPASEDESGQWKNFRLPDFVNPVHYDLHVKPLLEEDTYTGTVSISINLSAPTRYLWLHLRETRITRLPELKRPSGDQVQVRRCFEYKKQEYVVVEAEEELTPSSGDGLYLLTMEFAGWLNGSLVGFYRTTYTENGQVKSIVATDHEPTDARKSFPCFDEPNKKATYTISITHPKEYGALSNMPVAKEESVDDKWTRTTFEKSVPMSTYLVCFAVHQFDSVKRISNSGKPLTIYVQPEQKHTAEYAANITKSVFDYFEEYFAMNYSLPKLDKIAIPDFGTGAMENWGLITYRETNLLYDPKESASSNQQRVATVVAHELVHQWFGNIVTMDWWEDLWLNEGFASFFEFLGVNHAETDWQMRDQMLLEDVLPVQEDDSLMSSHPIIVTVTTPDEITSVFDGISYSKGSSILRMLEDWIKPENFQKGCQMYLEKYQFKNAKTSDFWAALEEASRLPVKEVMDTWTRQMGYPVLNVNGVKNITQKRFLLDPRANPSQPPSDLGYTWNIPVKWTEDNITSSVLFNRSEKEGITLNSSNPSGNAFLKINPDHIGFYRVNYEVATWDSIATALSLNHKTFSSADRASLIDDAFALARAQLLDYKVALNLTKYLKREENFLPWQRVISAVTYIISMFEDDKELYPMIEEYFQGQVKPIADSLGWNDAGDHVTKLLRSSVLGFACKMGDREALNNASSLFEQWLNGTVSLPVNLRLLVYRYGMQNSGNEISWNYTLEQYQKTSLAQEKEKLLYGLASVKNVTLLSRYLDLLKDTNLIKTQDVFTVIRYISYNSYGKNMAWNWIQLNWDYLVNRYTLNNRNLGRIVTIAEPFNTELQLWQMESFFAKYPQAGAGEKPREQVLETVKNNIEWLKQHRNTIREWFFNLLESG

IC50 (Aminopeptidase-A) [µM]	IC50 (aminopeptidase M) [µM]	IC50 (Leucine-aminopeptidase) [µM]	Structure (SMILES)	Value of IC50 against Aminopeptidase-A (Aminopeptidase-A) [µg/mL]	LD50 (mice)	Value of IC50 against Aminopeptidase-B (Aminopeptidase-B) [µg/mL]	Solubility (Solubility in solvents)	Number of PFC ([1]; 62.5 μg/mouse ip. at 0, 24, 48, 72 h)	T/C (%) ([1]; 62.5 μg/mouse ip.)	Number of PFC ([1]; 250 μg/mouse ip. at 0, 24, 48, 72 h)	T/C (%) ([1]; 250 μg/mouse ip.)	Number of PFC ([1]; 1000 μg/mouse ip. at 0, 24, 48, 72 h)	T/C (%) ([1]; 1000 μg/mouse ip.)	Effect on number of antibody-forming cells in spleen (in words) ([1]; intraperitoneal injection, SRBC-immunized mice, probestin 1000 μg to 62.5 μg/mouse)	Value of IC50 against Leucine-aminopeptidase (Leucine-aminopeptidase) [µg/mL]
> 259	1.04	2.59	CCCCC[C@H](CC(=O)NO)C(=O)N[C@H](C(=O)N1CCC[C@H]1CO)C(C)C [Actinonin, actinonin, reference compound]	–	–	–	–	–	–	–	–	–	–	–	–
–	–	–	CC(C)C[C@H](NC(=O)[C@@H](O)[C@H](N)Cc1ccccc1)C(=O)N1CCC[C@H]1C(=O)N1CCC[C@H]1C(=O)O [Probestin]	> 100	greater than 250 mg/kg	36.7	Readily soluble in water, methanol and dimethyl-sulfoxide, but insoluble in acetone, ethyl acetate, chloroform and hexane	492.540 ± 69.980 × 10^3 /spleen	212.1	631.680 ± 69.560 × 10^3 /spleen	271.8	891.900 ± 162.610 × 10^3 /spleen	384.1	increased number of the antibody-forming cells in the spleen	0.091
